Values joined by “and” are separate entries in the source; they are usually repeats but may differ in a detail not shown here. Equal entries are not always repeated.
Key:
[1] = tested on: Canis familiaris; assay: Spermidine Distribution in kidney was determined after DESPM dosing of 8.0 mg/kg/day for 4.5 days in dog(cu dose-52.4) and sacrificed at 10 days PLD(cu dose-36 mg/kg); format: ADME, organism-based, Canis lupus familiaris; settings: in vivo, 240 h
[2] = tested on: Canis familiaris; assay: Spermine Distribution in liver was determined after DESPM dosing of 1.87 mg/kg/day for 28 days in dog(cu dose-52.4) and sacrificed at 10 days PLD(cu dose-52.4 mg/kg); format: ADME, organism-based, Canis lupus familiaris; settings: in vivo, 240 h
[3] = tested on: Canis familiaris; assay: MESPM/MEHSPH Distribution in kidney was determined after DESPM dosing of 6.0 mg/kg/day for 4.5 days in dog(cu dose-52.4) and sacrificed at 10 days PLD(cu dose-27 mg/kg); format: ADME, organism-based, Canis lupus familiaris; settings: in vivo, 240 h
[4] = tested on: Rattus norvegicus; assay: Percent reduction was determined by using the ratio of mean of treated animal to that of control animal at a dose of 47 mg/kg; format: functional
[5] = tested on: Canis familiaris; assay: Spermine Distribution in kidney was determined after DESPM dosing of 4 mg/kg/day for 13 days in dog(cu dose-52.4) and sacrificed at 75 days PLD(cu dose-52 mg/kg); format: ADME, organism-based, Canis lupus familiaris; settings: in vivo, 1800 h
[6] = tested on: Rattus norvegicus; assay: Weight loss of rat over the 6-h experimental period when a dose of 14.3 mg/kg (35.4 administered; format: functional
[7] = tested on: Canis familiaris; assay: putrescine Distribution in liver was determined after DESPM dosing of 8.0 mg/kg/day for 4.5 days in dog(cu dose-52.4) and sacrificed at 10 days PLD(cu dose-36 mg/kg); format: ADME, organism-based, Canis lupus familiaris; settings: in vivo, 240 h
[8] = tested on: Canis familiaris; assay: Spermine Distribution in liver was determined after DESPM dosing of 4 mg/kg/day for 13 days in dog(cu dose-52.4) and sacrificed at 10 days PLD(cu dose-52 mg/kg); format: ADME, organism-based, Canis lupus familiaris; settings: in vivo, 240 h
[9] = tested on: Canis familiaris; assay: MESPM/MEHSPH Distribution in kidney was determined after DESPM dosing of 8.0 mg/kg/day for 4.5 days in dog(cu dose-52.4) and sacrificed at 75 days PLD(cu dose-36 mg/kg); format: ADME, organism-based, Canis lupus familiaris; settings: in vivo, 1800 h
[10] = tested on: Rattus norvegicus; assay: Stool output of rat over the 6-h collection period when a dose of 9.4 mg/kg (23.3 administered; format: functional
[11] = tested on: Canis familiaris; assay: putrescine Distribution in kidney was determined after DESPM dosing of 4.0 mg/kg/day for 13 days in dog and sacrificed at 10 days PLD(cu dose-52 mg/kg); format: ADME, organism-based, Canis lupus familiaris; settings: in vivo, 240 h
[12] = tested on: Canis familiaris; assay: MESPM/MEHSPH Distribution in kidney was determined after DESPM dosing of 1.87 mg/kg/day for 28 days in dog(cu dose-52.4) and sacrificed at 75 days PLD(cu dose-52.4 mg/kg); format: ADME, organism-based, Canis lupus familiaris; settings: in vivo, 1800 h
[13] = tested on: Canis familiaris; assay: putrescine Distribution in kidney was determined after DESPM dosing of 1.87 mg/kg/day for 28 days in dog and sacrificed at 10 days PLD(cu dose-52.4 mg/kg); format: ADME, organism-based, Canis lupus familiaris; settings: in vivo, 240 h
[14] = tested on: Canis familiaris; assay: MESPM/MEHSPH Distribution in liver was determined after DESPM dosing of 4 mg/kg/day for 13 days in dog(cu dose-52.4) and sacrificed at 10 days PLD(cu dose-52 mg/kg); format: ADME, organism-based, Canis lupus familiaris; settings: in vivo, 240 h
[15] = tested on: Canis familiaris; assay: putrescine Distribution in kidney was determined after DESPM dosing of 8.0 mg/kg/day for 4.5 days in dog and sacrificed at 75 days PLD(cu dose-36 mg/kg); format: ADME, organism-based, Canis lupus familiaris; settings: in vivo, 1800 h
[16] = tested on: Canis familiaris; assay: putrescine Distribution in kidney was determined after DESPM dosing of 6.0 mg/kg/day for 4.5 days in dog and sacrificed at 10 days PLD(cu dose-27 mg/kg); format: ADME, organism-based, Canis lupus familiaris; settings: in vivo, 240 h
[17] = tested on: Canis familiaris; assay: putrescine Distribution in kidney was determined after DESPM dosing of 8.0 mg/kg/day for 4.5 days in dog and sacrificed at 10 days PLD(cu dose-36 mg/kg); format: ADME, organism-based, Canis lupus familiaris; settings: in vivo, 240 h
[18] = tested on: Canis familiaris; assay: Spermine Distribution in kidney was determined after DESPM dosing of 1.87 mg/kg/day for 28 days in dog(cu dose-52.4) and sacrificed at 10 days PLD(cu dose-52.4 mg/kg); format: ADME, organism-based, Canis lupus familiaris; settings: in vivo, 240 h
[19] = The chronic toxicity was determined in female CD1 mice after (ip) administration; format: functional; settings: Mus musculus
[20] = tested on: Canis familiaris; assay: MESPM/MEHSPH Distribution in liver was determined after DESPM dosing of 1.87 mg/kg/day for 28 days in dog(cu dose-52.4) and sacrificed at 10 days PLD(cu dose-52.4 mg/kg); format: ADME, organism-based, Canis lupus familiaris; settings: in vivo, 240 h
[21] = tested on: Canis familiaris; assay: Spermine Distribution in liver was determined after DESPM dosing of 1.87 mg/kg/day for 28 days in dog(cu dose-52.4) and sacrificed at 75 days PLD(cu dose-52.4 mg/kg); format: ADME, organism-based, Canis lupus familiaris; settings: in vivo, 1800 h
[22] = tested on: Canis familiaris; assay: Spermidine Distribution in liver was determined after DESPM dosing of 1.87 mg/kg/day for 28 days in dog(cu dose-52.4) and sacrificed at 75 days PLD(cu dose-52.4 mg/kg); format: ADME, organism-based, Canis lupus familiaris; settings: in vivo, 1800 h
[23] = tested on: Canis familiaris; assay: MESPM/MEHSPH Distribution in liver was determined after DESPM dosing of 1.87 mg/kg/day for 28 days in dog(cu dose-52.4) and sacrificed at 75 days PLD(cu dose-52.4 mg/kg); format: ADME, organism-based, Canis lupus familiaris; settings: in vivo, 1800 h
[24] = The acute toxicity was determined in female CD1 mice after (ip) administration; format: functional; settings: Mus musculus
[25] = tested on: Canis familiaris; assay: MESPM/MEHSPH Distribution in kidney was determined after DESPM dosing of 1.87 mg/kg/day for 28 days in dog(cu dose-52.4) and sacrificed at 10 days PLD(cu dose-52.4 mg/kg); format: ADME, organism-based, Canis lupus familiaris; settings: in vivo, 240 h
[26] = tested on: Canis familiaris; assay: Spermidine Distribution in kidney was determined after DESPM dosing of 4 mg/kg/day for 13 days in dog(cu dose-52.4) and sacrificed at 75 days PLD(cu dose-52 mg/kg); format: ADME, organism-based, Canis lupus familiaris; settings: in vivo, 1800 h
[27] = tested on: Canis familiaris; assay: Spermidine Distribution in liver was determined after DESPM dosing of 8.0 mg/kg/day for 4.5 days in dog(cu dose-52.4) and sacrificed at 10 days PLD(cu dose-36 mg/kg); format: ADME, organism-based, Canis lupus familiaris; settings: in vivo, 240 h
[28] = tested on: Rattus norvegicus; assay: Percent reduction was determined by using the ratio of mean of treated animal to that of control animal at a dose of 94 mg/kg; format: functional
[29] = tested on: Canis familiaris; assay: Distribution in liver was determined after DESPM dosing of 4 mg/kg/day for 13 days in dog(cu dose-52.4) and sacrificed at 10 days PLD(cu dose-52 mg/kg); format: ADME, organism-based, Canis lupus familiaris; settings: in vivo, 240 h
[30] = tested on: Canis familiaris; assay: Spermidine Distribution in liver was determined after DEHSPM dosing of 2.0 mg/kg/day for 29 days in dog(cu dose-52.4) and sacrificed at 10 days PLD(cu dose-58 mg/kg); format: ADME, organism-based, Canis lupus familiaris; settings: in vivo, 240 h
[31] = tested on: Canis familiaris; assay: Distribution in liver was determined after DESPM dosing of 6.0 mg/kg/day for 4.5 days in dog(cu dose-52.4) and sacrificed at 75 days PLD(cu dose-27 mg/kg); format: ADME, organism-based, Canis lupus familiaris; settings: in vivo, 1800 h
[32] = tested on: Canis familiaris; assay: Distribution in kidney was determined after DESPM dosing of 6.0 mg/kg/day for 4.5 days in dog(cu dose-52.4) and sacrificed at 10 days PLD(cu dose-27 mg/kg); format: ADME, organism-based, Canis lupus familiaris; settings: in vivo, 240 h
[33] = tested on: Canis familiaris; assay: HSPM Distribution in liver was determined after DEHSPM dosing of 2.0 mg/kg/day for 29 days in dog(cu dose-52.4) and sacrificed at 10 days PLD(cu dose-22 mg/kg); format: ADME, organism-based, Canis lupus familiaris; settings: in vivo, 240 h
[34] = tested on: Canis familiaris; assay: Spermidine Distribution in kidney was determined after DEHSPM dosing of 2.0 mg/kg/day […] in dog(cu dose-52.4) and sacrificed at 10 days PLD(cu dose-22 mg/kg); format: ADME, organism-based, Canis lupus familiaris; settings: in vivo, 240 h

CCNCCCNCCCCNCCCNCC [BIS(ETHYL)SPERMINE]
Wet weight of tissue [1]: 66 nM/g
Wet weight of tissue [2]: 850 nM/g
Wet weight of tissue [3]: 10 nM/g
Reduction [4]: 75% and 92%
Wet weight of tissue [5]: 534 nM/g
Weight loss [6]: <4.4 g
Wet weight of tissue [7]: 109 nM/g
Wet weight of tissue [8]: 462 nM/g
Wet weight of tissue [9]: 0 nM/g
Stool output [10]: <0.6 g (350g of rat weight)-1
Wet weight of tissue [11]: 12 nM/g
Wet weight of tissue [12]: 0 nM/g
Wet weight of tissue [13]: 0 nM/g
Wet weight of tissue [14]: 34 nM/g
Wet weight of tissue [15]: 6 nM/g
Wet weight of tissue [16]: 7 nM/g
Wet weight of tissue [17]: 20 nM/g
Wet weight of tissue [18]: 998 nM/g
LD50 [19]: 80 mg/kg
Wet weight of tissue [20]: 7 nM/g
Wet weight of tissue [21]: 649 nM/g
Wet weight of tissue [22]: 198 nM/g
Wet weight of tissue [23]: 0 nM/g
LD50 [24]: 400 mg/kg
Wet weight of tissue [25]: 12 nM/g
Wet weight of tissue [26]: 117 nM/g
Wet weight of tissue [27]: 187 nM/g
Reduction [28]: 81%

CCNCCCCNCCCCNCCCCNCC [DIETHYLHOMOSPERMINE]
Wet weight of tissue [29]: 36 nM/g
Wet weight of tissue [30]: 50 nM/g
Wet weight of tissue [31]: 0 nM/g
Wet weight of tissue [32]: 44 nM/g
Wet weight of tissue [33]: 668 nM/g
Wet weight of tissue [34]: 68 nM/g
LD50 [19]: 38 mg/kg
LD50 [24]: 300 mg/kg

Source: ChEMBL document CHEMBL1134446, “Polyamine analogue antidiarrheals: a structure-activity study” (J Med Chem, 2001)
